Test results reported in US20060281174A1, “Methods for generating insulin-producing cells” (priority 2004, published 2006).

Tested on: Human MSCs and Pancl cells
Assay: Co-culture of human MSCs and Pancl cells in induction media with added factors to potentiate differentiation
Format: cell-based
Details: MSC/Pancl co-culture, induction media 1% ITS, 2% BSA in DMEM; 100 μM, 10 days
Procedure: Design: Human MSCs from Clontech (Palo Alto, CA), passage 4-6, and Pancl cells from ATCC, passage 2-6, were used in the experiment. 5 ×10ˆ5 cells for both cells were seeded in 10 cm tissue culture treated dishes in a 1:1 combination media of DMEM containing 10% FBS and a MSC growth media purchased from CAMBREX (Walkersville, MD). After 2-3 days of culture, the media was replaced by the induction media containing1% ITS, 2% BSA in DMEM. The proteasome inhibitor, Lactocystin, was added into the media at the final concentration of 100 μM to potentiate the differentiation for 10 days.
Design: Human MSCs from Clontech, passage 4-6, and Pancl cells from ATCC, passage 2-6, were used in the experiment. 5 ×10ˆ5 cells for both cells were seeded in 10 cm tissue culture treated dishes in a 1:1 media of DMEM containing 10% FBS, and a MSC growth media purchased from CAMBREX. After 2-3 days of culture, the media was replaced by the induction media containing 1% ITS, 2% BSA in DMEM for 10 days. A growth factor cocktail containing bFGF, EGF, Exendin-4 and Nicotinamide, was added into the media to potentiate the differentiation.
Design: Human MSCs from Clontech, passage 4-6, and Pancl cells from ATCC, passage 2-6, were used in the experiment. 5 ×10ˆ5 cells for both cells were seeded in 10 cm tissue culture treated dishes in a 1:1 media of DMEM with 10% FBS, and MSC growth media purchased from CAMBREX. […]

`CC(=O)N[C@@H](CSC(=O)[C@]1([C@@H](O)C(C)C)NC(=O)[C@H](C)[C@@H]1O)C(=O)O` [Lactocystin] was tested. Which expression of insulin did it give?
The expression of insulin was “No formation of clusters or expression of insulin”.

And the formation of clusters?
Its formation of clusters is “No formation of clusters”.
